# Assay results as given in patent US7329649B2, “Combinatorial methods for inducing cancer cell death” (The Trustees of Columbia University in the City of New York, priority 2001, dated 2008).
# Tested on: mutated or wild type K-ras expressing pancreatic carcinoma cells
# Test: Cell growth and viable cell numbers (hemocytometer, MTT)
# Assay type: cell-based, human
# Procedure: FIG. 5. […] Cells were treated with the indicated agents for three days and viable cell counts were determined by hemocytometer.
# Cell lines, culture conditions and growth assays.
row,Substance,growth suppression compared with AS K-ras PS ODN
1,"MM PS ODN: mismatched K-ras PS ODN CACTTGCAAATATTCAGT (SEQ ID NO:16) (DNA, all phosphorothioate, methylation of C not given here)",significantly less growth suppression
2,"SC PS ODN: scrambled K-ras PS ODN ACTAGCTATACTAGCTAT (SEQ ID NO:17) (DNA, all phosphorothioate, methylation of C not given here)",significantly less growth suppression
